Measured values: PubChem BioAssay (NCI)
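Results reflect a 48-hour exposure of cells in 96-well plates to compound at five concentrations. GI50 is the concentration that inhibits growth by half. TGI: concentration producing complete growth inhibition.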

Assays:
Assay in all cases: NCI anticancer screen, dose series, 48 h
NCI-H23 lung = tested on: NCI-H23 lung
SNB-75 CNS = tested on: SNB-75 CNS
ACHN renal = tested on: ACHN renal
SK-MEL-28 melanoma = tested on: SK-MEL-28 melanoma
786-0 renal = tested on: 786-0 renal
CAKI-1 renal = tested on: CAKI-1 renal
CCRF-CEM leukemia = tested on: CCRF-CEM leukemia
U251 CNS = tested on: U251 CNS
T-47D breast = tested on: T-47D breast
PC-3 prostate = tested on: PC-3 prostate

Row | SMILES | TGI (NCI-H23 lung) | TGI (SNB-75 CNS) | TGI (ACHN renal) | TGI (SK-MEL-28 melanoma) | TGI (786-0 renal) | TGI (CAKI-1 renal) | TGI (CCRF-CEM leukemia) | TGI (U251 CNS) | GI50 (T-47D breast) | TGI (T-47D breast) | GI50 (CAKI-1 renal) | GI50 (NCI-H23 lung) | GI50 (U251 CNS) | GI50 (SNB-75 CNS) | GI50 (ACHN renal) | GI50 (SK-MEL-28 melanoma) | GI50 (PC-3 prostate) | TGI (PC-3 prostate) | GI50 (786-0 renal) | GI50 (CCRF-CEM leukemia)
1 | CC1OC(n2cc(C(F)(F)F)c(=O)[nH]c2=O)C=CC1=O (stereo unspecified) | 33 µM | 32.8 µM | 31.4 µM | 38.2 µM | 33.1 µM | – | – | – | – | – | – | – | – | – | – | – | – | – | – | –
2 | COc1ccc(CN2C(=O)[C@@H]3Cc4c(OC)c(C)c(OC)c(OC)c4[C@H](/C2=C\c2cc(OC)c(OC)c(C)c2OC)N3C(=O)OC(C)C)cc1 | > 100 µM | > 100 µM | > 100 µM | > 100 µM | > 100 µM | > 100 µM | > 100 µM | > 100 µM | – | – | – | – | – | – | – | – | – | – | – | –
3 | Cc1ccc2c(c1)-c1c3c(nn1C)-c1ccccc1SC3O2 (stereo unspecified) | > 100 µM | > 100 µM | > 100 µM | > 100 µM | > 100 µM | – | > 100 µM | > 100 µM | – | – | – | – | – | – | – | – | – | – | – | –
4 | CC(=O)OCC1OC(n2cccnc2=O)C(OC(C)=O)C1OC(C)=O (stereo unspecified) | – | > 100 µM | > 100 µM | > 100 µM | > 100 µM | > 100 µM | > 100 µM | > 100 µM | – | – | – | – | – | – | – | – | – | – | – | –
5 | O=C(Nc1ccncc1)C(=O)c1cn(S(=O)(=O)c2cccc(Cl)c2)c2ccccc12 | > 100 µM | 23.2 µM | 57.1 µM | 60.1 µM | 43.6 µM | 39.9 µM | – | > 100 µM | 9.08 µM | > 100 µM | 3.38 µM | 4.65 µM | 5.78 µM | 5.16 µM | 7.58 µM | 10.2 µM | 11.8 µM | > 100 µM | 7.94 µM | –
6 | COc1ccc(Oc2nc3cc(N)cc(N)c3nc2-c2ccccc2)cc1 | > 100 µM | – | > 100 µM | 49 µM | > 100 µM | > 100 µM | 12.6 µM | > 100 µM | 15.3 µM | 97.3 µM | 79.6 µM | 25.2 µM | 26.6 µM | – | 36.4 µM | 19.6 µM | 15 µM | > 100 µM | 24.4 µM | 2.97 µM
7 | Cc1ccc(N(C=O)c2c([N+](=O)[O-])cc([N+](=O)[O-])c3c2=[N+]([O-])CN=3)cc1 | 68.1 µM | 95.2 µM | 64 µM | > 100 µM | 67.6 µM | > 100 µM | – | 79.9 µM | – | 39.7 µM | – | – | – | – | – | – | – | 47.3 µM | – | –
8 | CCc1nc(C)cn1C(=O)OCc1nc2nc(Cl)nc(N3CCOCC3)c2[nH]1 | 3.35 µM | 2.06 µM | 2.09 µM | 3.2 µM | 3.29 µM | 1.71 µM | 1.19 µM | 3.42 µM | – | – | 0.406 µM | 1.55 µM | 1.63 µM | 0.579 µM | 0.854 µM | 1.78 µM | 1.25 µM | 3.01 µM | 1.61 µM | 0.302 µM
9 | O=C1c2ccccc2C(=O)N1CCCOCc1c[nH]c(=O)[nH]c1=O | > 100 µM | > 100 µM | > 100 µM | > 100 µM | > 100 µM | > 100 µM | > 100 µM | > 100 µM | – | – | – | – | – | – | – | – | – | – | – | –
10 | O=S1(=O)c2ccccc2N(c2ccccc2)c2nnnn21 | 59.6 µM | – | > 100 µM | 92.9 µM | 32.7 µM | 36.9 µM | 31 µM | > 100 µM | – | > 100 µM | – | – | – | – | – | – | – | > 100 µM | – | –
11 | C=C1C(=O)O[C@H](c2ccoc2)C[C@@H]1[C@@]1(C)CCCC2(C)C(=O)OCC21 (stereo partly specified) | > 100 µM | > 100 µM | > 100 µM | > 100 µM | > 100 µM | > 100 µM | > 100 µM | > 100 µM | – | – | – | – | – | – | – | – | – | – | – | –
12 | CCOC(=O)C1=C(OC(OCC)C([Se]c2ccccc2)C(C)C)CCC1 (stereo unspecified) | 22.3 µM | 62.5 µM | 62 µM | 39.4 µM | 20.6 µM | > 100 µM | 27.8 µM | 16.6 µM | – | – | – | – | – | – | – | – | – | – | – | –
13 | CCOC(=O)C1=C(C)NC(=O)NC1c1ccc(OC)cc1OC (stereo unspecified) | > 100 µM | > 100 µM | > 100 µM | – | > 100 µM | > 100 µM | > 100 µM | > 100 µM | – | – | – | – | – | – | – | – | – | – | – | –
14 | COc1ccc(Cn2cc(COc3cc(/C=C/C(=O)c4cc(OC)c(OC)c(OC)c4)ccc3OC)nn2)cc1 | > 100 µM | – | > 100 µM | > 100 µM | > 100 µM | > 100 µM | > 100 µM | > 100 µM | 3.41 µM | > 100 µM | 5.68 µM | 31.3 µM | 3.8 µM | – | 4.47 µM | 7.45 µM | 3.63 µM | > 100 µM | 5.01 µM | 3.14 µM
15 | Cc1cccc(C)c1NC(=O)CCC(=O)NC(N)=NC#N | > 100 µM | > 100 µM | > 100 µM | > 100 µM | > 100 µM | > 100 µM | > 100 µM | > 100 µM | – | – | – | – | – | – | – | – | – | – | – | –
16 | N#Cc1c2ccccc2c(Cc2ccc3c(c2)OCCOCCOCCOCCOCCO3)c2ccccc12 | 25.3 µM | – | 21.7 µM | 19.4 µM | 25.4 µM | 22.2 µM | > 100 µM | 26.2 µM | – | – | – | – | – | – | – | – | – | – | – | –
17 | COC(=O)C1C(C(=O)O)C2(c3ccccc3)C(=O)C1(c1ccccc1)C(c1ccccc1)=C2c1ccccc1 (stereo unspecified) | 31.5 µM | – | 88.1 µM | – | 37.5 µM | 40.9 µM | 33.6 µM | > 100 µM | – | – | 20.2 µM | 16.5 µM | 24.2 µM | – | 25.8 µM | – | 15.2 µM | 32.5 µM | 21.2 µM | 11.7 µM
18 | Cc1ccc(N)cc1[As]=[As]c1cc(N)ccc1C (stereo unspecified) | 3.58 µM | 2.59 µM | 3.26 µM | 2.83 µM | 3.03 µM | 2.86 µM | 2.36 µM | 2.69 µM | – | – | 1.5 µM | 1.7 µM | 1.35 µM | 1.27 µM | 1.67 µM | 1.39 µM | 1.71 µM | 3.38 µM | 1.64 µM | 0.298 µM
19 | CC1(C)c2ccccc2N2C(c3ccccc3)=NOC21C (stereo unspecified) | > 100 µM | > 100 µM | > 100 µM | > 100 µM | > 100 µM | > 100 µM | > 100 µM | > 100 µM | – | – | – | – | – | – | – | – | – | – | – | –
20 | O=C(NC1CC1)c1c(O)[nH]c(=S)[nH]c1=O | > 100 µM | > 100 µM | > 100 µM | > 100 µM | > 100 µM | > 100 µM | > 100 µM | > 100 µM | – | – | – | – | – | – | – | – | – | – | – | –
